Data from US7176224B2, “Oxazolyl-aryloxyacetic acid derivatives and their use as PPAR agonists” (Eli Lilly and Company, priority 2000, dated 2007).
pIC50: −log10 of the molar value.

Experiments:
Hu apoAI transgenic mice = assay: Evaluation of triglyceride and cholesterol levels in hu apoAI transgenic mice; format: in vivo
Protocol: Five to six week old male mice, transgenic for human apoAI [C57B1/6-tgn(apoa1) 1rub, Jackson Laboratory, Bar Harbor, Me.] were housed five per cage (10″×20″8″ with aspen chip bedding) with food (Purina 5001) and water available at all times. After an acclimation period of 2 weeks, animals were individually identified by ear notches, weighed, and assigned to groups based on body weight. Beginning the following morning, mice were dosed daily by oral gavage for 7 days using a 20 gauge, 1½″ curved disposable feeding needle (Popper & Sons). Treatments were test compounds (30 mg/kg), a positive control (fenofibrate, 100 mg/kg) or vehicle [1% carboxymethylcellulose (w/v)/0.25% Tween80 (w/v); 0.2 ml/mouse]. Prior to termination on day 7, mice were weighed and dosed. Three hours after dosing, animals were anesthetized by inhalation of isoflurane (2–4%; Abbott Laboratories, Chicago, Ill.) and blood obtained via cardiac puncture (0.7–1.0 ml). Whole blood was transferred to serum separator tubes (Vacutainer SST), chilled on ice, and permitted to clot. Serum was obtained after centrifugation at 4° C. and frozen until analysis for triglycerides, total cholesterol, compound levels, and serum lipoprotein profile by fast protein liquid chromatography (FPLC) coupled to an inline detection system. After sacrifice by cervical dislocation, the liver, heart and epididymal fat pads were excised and weighed.
The animals dosed with vehicle had average triglycerides values of 60–80 mg/dl, which were reduced by the positive control fenofibrate (33–58 mg/dl with a mean reduction of 37%). The animals dosed with vehicle had average total serum cholesterol values of 140–180 mg/dl, which were increased by fenofibrate (190–280 mg/dl, with a mean elevation of 41%). […] increased the amount of HDLc (68–96 v-sec with a mean percent increase of 48%).
Glucose was measured colorimetrically using commercially purchased reagents (Sigma #315-500). According to the manufacturers, the procedures were modified from published work (McGowan, M. W., Artiss, J. D., Strandbergh, D. R. & Zak, B. Clin Chem, 20:470–5 (1974) and Keston, A. Specific colorimetric enzymatic analytical reagents for glucose. Abstract of papers 129th Meeting ACS, 31C (1956).); and depend on the release of a mole of hydrogen peroxide for each mole of analyte, coupled with a color reaction first described by Trinder (Trinder, P. Determination of glucose in blood using glucose oxidase with an alternative oxygen acceptor. Ann Clin Biochem, 6:24 (1969)). The absorbance of the dye produced is linearly related to the analyte in the sample. The assays were further modified in our laboratory for use in a 96 well format. Standards (Sigma #339-11, Sigma #16-11, and Sigma #CC0534 for glucose, triglycerides and total cholesterol, respectively), quality control plasma (Sigma # A2034), and samples (2 or 5 μl/well) were measured in duplicate using 200 μl of reagent. An additional aliquot of sample, pipetted to a third well and diluted in 200 μl water, provided a blank for each specimen. Plates were incubated at room temperature (18, 15, and 10 minutes for glucose, triglycerides and total cholesterol, respectively) on a plate shaker (DPC Micormix 5) and absorbance read at 500 nm (glucose and total cholesterol) or 540 nm (triglycerides) on a plate reader (Wallac Victor 1420). Sample absorbances were compared to a standard curve (100–800, 10–500, and 100–400 mg/dl for glucose, triglycerides and total cholesterol, respectively). Values for the quality control sample were always within the expected range and the coefficient of variation for samples was below 10%. All samples from an experiment were assayed at the same time to minimize inter-assay variability.
Serum lipoproteins were separated and cholesterol quantitated with an in-line detection system. Sample was applied to a Superose® 6 HR 10/30 size exclusion column (Amersham Pharmacia Biotech) and eluted with phosphate buffered saline-EDTA at 0.5 ml/min. […]

huPPARα [1] = biological target: T1, huPPARα (Homo sapiens, UniProt Q07869); assay: DNA-dependent binding (ABCD binding), SPA, radioligand displacement; settings: tritium-labeled PPARα agonist radioligand
T1 sequence (Q07869 1-468): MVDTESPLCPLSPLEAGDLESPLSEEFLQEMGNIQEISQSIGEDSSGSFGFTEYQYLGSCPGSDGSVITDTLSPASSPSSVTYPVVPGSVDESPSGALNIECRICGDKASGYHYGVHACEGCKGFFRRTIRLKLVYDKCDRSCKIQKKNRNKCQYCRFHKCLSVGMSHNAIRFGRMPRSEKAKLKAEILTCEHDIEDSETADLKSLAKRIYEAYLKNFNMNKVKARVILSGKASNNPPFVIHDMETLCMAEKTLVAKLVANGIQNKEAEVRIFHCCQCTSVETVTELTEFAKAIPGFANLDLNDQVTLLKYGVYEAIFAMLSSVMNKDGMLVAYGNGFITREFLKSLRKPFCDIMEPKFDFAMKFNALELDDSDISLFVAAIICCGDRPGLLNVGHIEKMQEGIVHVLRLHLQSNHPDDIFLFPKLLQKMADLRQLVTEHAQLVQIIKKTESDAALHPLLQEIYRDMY
T1 sequence (P19793 1-462 partner): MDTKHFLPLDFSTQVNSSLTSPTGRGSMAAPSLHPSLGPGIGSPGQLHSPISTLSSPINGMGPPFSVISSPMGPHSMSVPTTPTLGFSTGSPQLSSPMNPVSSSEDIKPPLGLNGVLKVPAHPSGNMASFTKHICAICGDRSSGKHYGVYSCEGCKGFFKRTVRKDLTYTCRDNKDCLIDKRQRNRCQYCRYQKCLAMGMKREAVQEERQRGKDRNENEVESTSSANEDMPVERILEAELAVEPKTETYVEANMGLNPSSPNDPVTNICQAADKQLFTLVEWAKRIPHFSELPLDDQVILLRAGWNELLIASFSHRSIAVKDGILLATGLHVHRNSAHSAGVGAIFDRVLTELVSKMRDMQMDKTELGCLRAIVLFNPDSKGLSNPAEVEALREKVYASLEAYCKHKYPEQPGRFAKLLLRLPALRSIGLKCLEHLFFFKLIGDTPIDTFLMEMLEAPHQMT
Protocol: (§1) […] binding (ABCD binding) was carried out using SPA technology with PPAR receptors. Tritium-labeled PPARα and PPARγ agonists were used as radioligands for generating displacement curves and IC50 values with compounds of the invention. Cotransfection assays were carried out in CV-1 cells. The reporter plasmid contained an acylCoA oxidase (AOX) PPRE and TK promoter upstream of the luciferase reporter cDNA. Appropriate PPARs and RXRα were constitutively expressed using plasmids containing the CMV promoter. […] In order to eliminate such interference, a GAL4 chimeric system was used in which the DNA binding domain of the transfected PPAR was replaced by that of GAL4, and the GAL4 response element was utilized in place of the AOX PPRE. Cotransfection efficacy was determined relative to PPARα agonist and PPARβ agonist reference molecules. Efficacies were determined by computer fit to a concentration-response curve, or in some cases at a single high concentration of agonist (10 μM). For binding or cotransfection studies with receptors other than PPARs, similar assays were carried out using appropriate ligands, receptors, reporter constructs, etc., for that particular receptor.
(§2) These studies were carried out to evaluate the ability of compounds of the invention to bind to and/or activate various nuclear transcription factors, particularly huPPARα (“hu” indicates “human”) and huPPARγ. These studies provide in vitro data concerning efficacy and selectivity of compounds of the invention. Furthermore, binding and cotransfection data for compounds of the invention were compared with corresponding data for marketed compounds that act on either huPPARα or huPPARγ.

huPPARγ [2] = biological target: T2, huPPARγ (Homo sapiens, UniProt P37231); assay: as above; settings: tritium-labeled PPARγ agonist radioligand
T2 sequence (P37231 1-505): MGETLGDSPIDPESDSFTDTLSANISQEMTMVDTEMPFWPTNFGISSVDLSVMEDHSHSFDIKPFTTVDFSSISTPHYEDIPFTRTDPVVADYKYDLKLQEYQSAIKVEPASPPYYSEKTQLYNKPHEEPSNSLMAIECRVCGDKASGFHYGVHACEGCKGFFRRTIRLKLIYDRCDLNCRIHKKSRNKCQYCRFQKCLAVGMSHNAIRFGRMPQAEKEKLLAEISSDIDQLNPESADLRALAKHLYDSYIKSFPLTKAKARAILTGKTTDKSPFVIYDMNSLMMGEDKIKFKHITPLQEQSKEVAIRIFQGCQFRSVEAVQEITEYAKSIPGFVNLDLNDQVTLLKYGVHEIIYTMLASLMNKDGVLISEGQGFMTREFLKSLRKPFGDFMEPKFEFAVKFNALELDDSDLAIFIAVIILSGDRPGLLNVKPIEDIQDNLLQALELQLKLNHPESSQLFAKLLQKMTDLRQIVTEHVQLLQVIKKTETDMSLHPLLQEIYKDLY
T2 sequence (P19793 1-462 partner): T1 sequence (P19793 1-462 partner)
Protocol: as §1, §2

huPPARα [3] = assay: Cotransfection assay in CV-1 cells, luciferase reporter; format: cell-based, human; settings: GAL4 chimeric system, relative to PPARα agonist reference molecule
Protocol: […] binding (ABCD binding) was carried out using SPA technology with PPAR receptors. Tritium-labeled PPARα and PPARγ agonists were used as radioligands for generating displacement curves and IC50 values with compounds of the invention. Cotransfection assays were carried out in CV-1 cells. The reporter plasmid contained an acylCoA oxidase (AOX) PPRE and TK promoter upstream of the luciferase reporter cDNA. Appropriate PPARs and RXRα were constitutively expressed using plasmids containing the CMV promoter. For PPARα and […], interference by endogenous […] in CV-1 cells was an issue. In order to eliminate such interference, a GAL4 chimeric system was used in which the DNA binding domain of the transfected PPAR was replaced by that of GAL4, and the GAL4 response element was utilized in place of the AOX PPRE. Cotransfection efficacy was determined relative to PPARα agonist and […] reference molecules. Efficacies were determined by computer fit to a concentration-response curve, or in some cases at a single high concentration of agonist (10 μM). For binding or cotransfection studies with receptors other than PPARs, similar assays were carried out using appropriate ligands, receptors, reporter constructs, etc., for that particular receptor.
as §2

huPPARγ [4] = assay: as above; format: cell-based, human; settings: GAL4 chimeric system, relative to agonist reference molecule
Protocol: as §1, with “Tritium-labeled PPARα and PPARγ agonists were used as radioligands for generating displacement curves and IC50 values with compounds of the invention.” left out, “Cotransfection efficacy was determined relative to PPARα agonist and PPARβ agonist reference molecules.” left out
as §2

[5] = 100 mg/kg oral gavage daily for 7 days, versus vehicle

Row | SMILES | pIC50 (huPPARα [1]) | pIC50 (huPPARγ [2]) | huPPARα CTF Efficacy (huPPARα [3]) | huPPARγ CTF Efficacy (huPPARγ [4]) | further results
1 | Cc1oc(-c2cccc(-c3ccsc3)c2)nc1CCOc1ccc(CC(C)(Oc2ccc(C(C)(C)C)cc2)C(=O)O)cc1 (stereo not drawn) [Example 19, 2-Methyl-3-(4-{2-[5-methyl-2-(3-thiophen-3-yl-phenyl)-oxazol-4-yl]-ethoxy}-phenyl)-2-(4-tert-butylphenoxy)-propionic acid] |  |  |  |  | % HDLc Increase (Hu apoAI transgenic mice; 30 mg/kg oral gavage daily for 7 days, serum HDLc FPLC area under the curve, over mice receiving vehicle): 85.3%
2 | COc1cccc(OC(C)(Cc2ccc(OCCc3nc(-c4ccc(-c5ccccc5)cc4)oc3C)cc2)C(=O)O)c1 (stereo not drawn) [Example 56, 3-{4-[2-(2-Biphenyl-4-yl-5-methyl-oxazol-4-yl)-ethoxy]-phenyl}-2-(3-methoxy-phenoxy)-2-methyl-propionic acid] | 6.21 | 7.00 | 70% | 88% | 
3 | Cc1oc(-c2cccc(-c3ccccc3)c2)nc1CCOc1ccc(CC(C)(Oc2ccc3c(c2)OCO3)C(=O)O)cc1 (stereo not drawn) [Example 58, 2-(Benzo[1,3]dioxol-5-yloxy)-3-{4-[2-(2-biphenyl-3-yl-5-methyl-oxazol-4-yl)-ethoxy]-phenyl}-2-methyl-propionic acid] | 6.84 | 7.43 | 48% | 101% | 
4 | CC(C)OC(=O)C(C)(C)Oc1ccc(C(=O)c2ccc(Cl)cc2)cc1 [fenofibrate] |  |  |  |  | high density lipoprotein cholesterol (HDLc) peak area (Hu apoAI transgenic mice; 100 mg/kg oral gavage daily for 7 days, pooled sera, FPLC, vehicle 47 to 62 v-sec): 68–96 v-sec; average triglycerides values (Hu apoAI transgenic mice; 100 mg/kg oral gavage daily for 7 days, serum, vehicle 60–80 mg/dl): 33 to 58 mg/dL; average total serum cholesterol values (Hu apoAI transgenic mice; 100 mg/kg oral gavage daily for 7 days, vehicle 140–180 mg/dl): 190 to 280 mg/dL; mean elevation of total serum cholesterol (Hu apoAI transgenic mice; [5]): 41%; mean percent increase of HDLc (Hu apoAI transgenic mice; [5]): 48%; mean reduction of triglycerides (Hu apoAI transgenic mice; [5]): 37%
